ChEMBL document CHEMBL1142295, “A potential new prodrug for the treatment of cystinosis: design, synthesis and in-vitro evaluation” (Bioorg Med Chem Lett, 2008)
Active and inactive are the calls of the source. The rule behind the calls is not given here.

Experiment: Depletion of lysosomal cystine in cystinotic fibroblasts GM00008 at 50 uM after 72 hrs
Type: functional, cell-based
Conditions: Fibroblast

SMILES	Activity
CCCCCCCCCC(=O)NCCSSCCNC(=O)CCCCCCCCC	Active
NCCS	Active
